Measured values as given in patent US20090082328A1, “Substituted phenylamino-benzene derivatives useful for treating hyper-proliferative disorders and diseases associated with mitogen extracellular kinase activity” (Bayer Schering Pharma Aktiengesellschaft, priority 2007, published 2009).

Experiments:
MEK1 = molecular target: T1, MEK1 (Homo sapiens, UniProt Q02750); assay: MEK1 Activation Kinase Assay (Cot1, HTRF); assay type: biochemical; settings: activation of GST-MEK1 by Cot1
T1 construct: purchased Millipore 14-420
Protocol: The kinase Cot1 activates MEK1 by phosphorylating its activation loop. The inhibitory activity of compounds of the present invention on this activation of MEK1 was quantified employing the HTRF assay described in the following paragraphs.
As substrate for the kinase reaction the unactive C-terminally His6-tagged GST-MEK1 fusion protein (Millipore cat. no 14-420) was used.
630 (Sigma), 5 mM β-phospho-glycerol] were added and the mixture was incubated for 10 min at 22° C. to allow pre-binding of the test compounds to the GST-MEK1 before the start of the kinase reaction. Then the kinase reaction was started by the addition of 2 μl of a solution of Cot1 in assay buffer and the resulting mixture was incubated for a reaction time of 20 min at 22° C. The concentration of Cot1 in the assay was adjusted depending of the activity of the enzyme lot and was chosen appropriate to have the assay in the linear range, typical enzyme concentrations were in the range of about 2 ng/μl (final conc. in the 5 μl assay volume). […] The resulting mixture was incubated 2 h at 22° C. to allow the binding of the phosphorylated GST-MEK1 to the anti-GST-XL665 and the Eu-cryptate labelled anti-phospho-MEK 1/2 antibody. Subsequently the amount of Ser217/Ser221-phosphorylated substrate was evaluated by measurement of the resonance energy transfer from the Eu-Cryptate-labelled anti-phospho-MEK antibody to the anti-GST-XL665.

[1] = phase I/II clinical trials in humans, literature [19]; cited from earlier work
colon cancer = settings: oral treatment, mouse models, literature [18]; cited from earlier work

T1 sequence (Q02750 whole entry): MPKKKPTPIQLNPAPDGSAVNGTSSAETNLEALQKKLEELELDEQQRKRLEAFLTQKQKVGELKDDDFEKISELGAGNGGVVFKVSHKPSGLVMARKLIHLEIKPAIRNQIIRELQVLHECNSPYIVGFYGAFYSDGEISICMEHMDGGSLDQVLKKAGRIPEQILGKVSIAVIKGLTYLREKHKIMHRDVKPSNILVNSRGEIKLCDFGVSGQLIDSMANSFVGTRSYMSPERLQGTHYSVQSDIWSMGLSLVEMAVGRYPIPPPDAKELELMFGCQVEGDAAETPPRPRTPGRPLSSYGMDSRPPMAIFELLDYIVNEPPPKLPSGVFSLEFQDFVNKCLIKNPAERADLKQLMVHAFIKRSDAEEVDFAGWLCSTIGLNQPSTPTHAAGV

| Compound | IC50 (MEK1) [nM] | further results |
| --- | --- | --- |
| CN(C)S(=O)(=O)Nc1cccc(Oc2cc(F)cc(Nc3ccc(I)cc3F)c2C#N)c1 [Example 2.1, N′-[3-[2-cyano-5-fluoro-3-[(2-fluoro-4-iodophenyl)amino]phenoxy]phenyl]-N,N-dimethyl-sulfamide] | < 1000 | – |
| NC(=O)c1c(Nc2ccc(I)cc2F)cc(F)cc1OCCc1cccnc1 [Example 3.5, 4-Fluoro-2-(2-fluoro-4-iodo-phenylamino)-6-(2-pyridin-3-yl-ethoxy)-benzamide] | < 250 | – |
| NC(=O)c1c(Nc2ccc(I)cc2F)cc(F)cc1OC[C@H](O)[C@@H](O)CO [Example 3.8, 4-Fluoro-2-(2-fluoro-4-iodo-phenylamino)-6-((2S,3S)-2,3,4-trihydroxy-butoxy)-benzamide] | < 250 | – |
| NC(=O)c1c(Nc2ccc(I)cc2F)cc(F)cc1Oc1cccc(N)c1 [Example 4.1, 2-(3-Amino-phenoxy)-4-fluoro-6-(2-fluoro-4-iodo-phenylamino)-benz-amide] | < 250 | – |
| NC(=O)c1c(Nc2ccc(I)cc2F)cc(F)cc1OCC1CNC1 [Example 4.6, 2-(Azeitidn-3-ylmethoxy)-4-fluoro-6-(2-fluoro-4-iodo-phenylamino)-benzamide] | < 250 | – |
| CCCNS(=O)(=O)Nc1cccc(Oc2cc(F)cc(Nc3ccc(I)cc3F)c2C(N)=O)c1 [Example 6.3, 2-[3-[[(propylamino)sulfonyl]amino]phenoxy]-4-fluoro-6-[(2-fluoro-4-iodophenyl)amino]-benzamide] | < 250 | – |
| NC(=O)c1c(Nc2ccc(I)cc2F)cc(F)cc1Oc1cccc(NS(N)(=O)=O)c1 [Example 6.7, 2-[3-[[(amino)sulfonyl]amino]phenoxy]-4-fluoro-6-[(2-fluoro-4-iodophenyl)amino]-benzamide] | < 250 | – |
| NC(=O)c1c(Nc2ccc(I)cc2F)cc(F)cc1OCCCNS(=O)(=O)c1ccccc1 [Example 6.11, 2-(3-Benzene-sulfonylamino-propoxy)-4-fluoro-6-(2-fluoro-4-iodo-phenylamino)-benzamide] | < 250 | – |
| CS(=O)(=O)N1CCCC(COc2cc(F)cc(Nc3ccc(I)cc3F)c2C(N)=O)C1 (stereo not shown) [Example 6.15, 4-Fluoro-2-(2-fluoro-4-iodo-phenylamino)-6-(1-methanesulfonyl-piperidin-3-ylmethoxy)-benzamide] | < 1000 | – |
| Cn1cnc(S(=O)(=O)NCCCOc2cc(F)cc(Nc3ccc(I)cc3F)c2C(N)=O)c1 [Example 6.17, 4-Fluoro-2-(2-fluoro-4-iodo-phenylamino)-6-[3-(1-methyl-1H-imidazole-4-sulfonylamino)-propoxy]-benzamide] | < 250 | – |
| NC(=O)c1c(Nc2ccc(Br)cc2F)cc(F)cc1OCC[C@@H](O)CO [Example 8.4, 2-(4-Bromo-2-fluoro-phenylamino)-6-((R)-3,4-dihydroxy-butoxy)-4-fluoro-benzamide] | < 1000 | – |
| NC(=O)c1c(Nc2ccc(I)cc2)cc(F)cc1OCC[C@@H](O)CO [Example 8.5, 2-((R)-3,4-Dihydroxy-butoxy)-4-fluoro-6-(4-iodo-phenylamino)-benzamide] | < 1000 | – |
| C#Cc1ccc(Nc2cc(F)cc(OCC[C@@H](O)CO)c2C(N)=O)c(F)c1 [Example 9.1, 2-((R)-3,4-Dihydroxy-butoxy)-6-(4-ethynyl-2-fluoro-phenylamino)-4-fluoro-benzamide] | < 1000 | – |
| C#Cc1ccc(Nc2cc(F)cc(Oc3cccc(NS(=O)(=O)N(C)C)c3)c2C(N)=O)c(F)c1 [Example 9.4, 2-[3-[[(dimethylamino)sulfonyl]amino]phenyoxy]-4-fluoro-6-[(4-ethynyl-2-fluorophenyl)amino]-benzamide] | < 250 | – |
| C#Cc1ccc(Nc2cc(F)cc(Oc3cccc(NS(=O)(=O)NCCC)c3)c2C(N)=O)c(F)c1 [Example 9.5, 2-[3-[[(propylamino)sulfonyl]amino]phenyoxy]-4-fluoro-6-[(4-ethynyl-2-fluorophenyl)amino]-benzamide] | < 250 | – |
| NC[C@H](O)CCOc1cc(F)cc(Nc2ccc(I)cc2F)c1C(N)=O [Example 10.3, 2-((R)-4-Amino-3-hydroxy-butoxy)-4-fluoro-6-(2-fluoro-4-iodo-phenylamino)-benzamide] | < 250 | – |
| NC(=O)c1c(Nc2ccc(I)cc2F)cc(F)cc1OCC[C@@H](O)CN1CCOCC1 [Example 10.6, 4-Fluoro-2-(2-fluoro-4-iodo-phenylamino)-6-((R)-3-hydroxy-4-morpholin-4-yl-butoxy)-benzamide] | < 250 | – |
| NC(=O)c1c(Nc2ccc(I)cc2F)cc(Cl)cc1OCC[C@@H](O)CO [Example 11.3, 4-Chloro-2-((R)-3,4-dihydroxy-butoxy)-6-(2-fluoro-4-iodo-phenylamino)-benzamide] | < 1000 | – |
| CNC(=O)c1c(Nc2ccc(I)cc2F)cc(F)cc1OCC[C@@H](O)CO [Example 12.8, 2-((R)-3,4-Dihydroxy-butoxy)-4-fluoro-6-(2-fluoro-4-iodo-phenylamino)-N-methyl-benzamide] | < 250 | – |
| O=C(NOCC1CC1)c1ccc(F)c(F)c1Nc1ccc(I)cc1Cl [PD184352] | – | clinical efficacy [1]: insufficient efficacy; colon cancer growth in vivo (colon cancer): inhibit colon cancer growth |

The next lines start with results.

| IC50 (MEK1) [nM] | Compound | further results |
| --- | --- | --- |
| < 250 | CN(C)S(=O)(=O)Nc1cccc(Oc2cc(F)cc(Nc3ccc(I)cc3F)c2C(N)=O)c1 [Example 3.2, 2-[3-[[(dimethylamino)sulfonyl]amino]phenoxy]-4-fluoro-6-[(2-fluoro-4-iodophenyl)amino]-benzamide] | – |
| < 250 | NC(=O)c1c(Nc2ccc(I)cc2F)cc(F)cc1OCCCN1CCCC1=O [Example 3.3, 4-Fluoro-2-(2-fluoro-4-iodo-phenylamino)-6-[3-(2-oxo-pyrrolidin-1-yl)-propoxy]-benzamide] | – |
| < 250 | NC(=O)c1c(Nc2ccc(I)cc2F)cc(F)cc1OCCC1CCCCN1 (stereo not shown) [Example 4.5, 4-Fluoro-2-(2-fluoro-4-iodo-phenylamino)-6-(2-piperidin-2-yl-ethoxy)-benzamide] | – |
| < 1000 | NC(=O)c1c(Nc2ccc(I)cc2F)cc(F)cc1Oc1ccc2c(c1)S(=O)(=O)CO2 [Example 5.1, 2-(3,3-Dioxo-2,3-dihydro-3λ^6-benzo[1,3]oxathiol-5-yloxy)-4-fluoro-6-(2-fluoro-4-iodo-phenylamino)-benzamide] | – |
| < 250 | NC(=O)c1c(Nc2ccc(I)cc2F)cc(F)cc1Oc1ccccc1 [Example 5.2, 4-Fluoro-2-(2-fluoro-4-iodo-phenylamino)-6-phenoxy-benzamide] | – |
| < 250 | CS(=O)(=O)Nc1cccc(Oc2cc(F)cc(Nc3ccc(I)cc3F)c2C(N)=O)c1 [Example 6.1a, 4-Fluoro-2-(2-fluoro-4-iodo-phenylamino)-6-(3-methanesulfonylamino-phenoxy)-benzamide] | – |
| < 250 | NC(=O)c1c(Nc2ccc(I)cc2F)cc(F)cc1Oc1cccc(N2CCCS2(=O)=O)c1 [Example 6.6, 2-[3-(1,1-Dioxo-1λ^6-isothiazolidin-2-yl)-phenoxy]-4-fluoro-6-(2-fluoro-4-iodo-phenylamino)-benzamide] | – |
| < 1000 | CS(=O)(=O)N1CCCCC1CCOc1cc(F)cc(Nc2ccc(I)cc2F)c1C(N)=O (stereo not shown) [Example 6.22, 4-Fluoro-2-(2-fluoro-4-iodo-phenylamino)-6-[2-(1-methanesulfonyl-piperidin-2-yl)-ethoxy]-benzamide] | – |
| < 250 | CC(C)(O)C(O)CCOc1cc(F)cc(Nc2ccc(I)cc2F)c1C(N)=O (stereo not shown) [Example 7.1, 2-(3,4-Dihydroxy-4-methyl-pentyloxy)-4-fluoro-6-(2-fluoro-4-iodo-phe-nylamino)-benzamide] | – |
| < 250 | NC(=O)c1c(Nc2ccc(I)cc2F)cc(F)cc1O[C@@H]1C[C@@H](O)[C@@H](O)C1 [Example 7.7] | – |
